Values of other authors, collected in patent publication US20250312353A1, “DRUG R[…] TREATMENT OF […] MALFORMATIONS” (University of South Carolina, priority 2024, published 2025).

What was measured:
[1] = test system: human lung tumor associated endothelial cell; details: on matrigel; even in the presence of VEGF
[2] = test system: host macrophage; details: bacterial infection

SMILES: COc1nc2ccc(Br)cc2cc1[C@@H](c1ccccc1)[C@@](O)(CCN(C)C)c1cccc2ccccc12 [bedaquiline]
- effect on capillary network formation [1]: inhibit capillary network formation
- effect on host macrophage innate immune resistance [2]: activate host macrophage innate immune resistance to bacterial infection
